From US20250009627A1, “THERAPEUTIC AND NON-THERAPEUTIC USES OF A PERSONAL CLEANSING COMPOSITION AND METHODS OF TREATMENT” (The Procter & Gamble Company, priority 2023, published 2025)

Key:
[1] = tested on: Cutibacterium acne 2044 NIA (skin isolate); experiment: In vitro Minimum Inhibitory Concentration (MIC) testing; type: cell-based, Cutibacterium acnes; settings: for MIC: read-out: Minimum Inhibition Concentration MIC
Description: The in vitro Minimum Inhibitory Concentration (MIC) Assay is a technique for determining the lowest concentration of a particular compound needed to prevent growth of microorganism. Different microorganisms were used to evaluate bacterial inhibition benefits for sulfate surfactants (Table 1)
Microorganisms are cultured and maintained in different culture medium. Each respective microorganism stock solution is diluted to 10^5 to 10^6 CFU/mL in a respective growth medium. 180 μl broth with the respective target microorganism is allocated into 96 well plates.
Sodium oleyl sulfate prepared from two different synthesis batches (Ex. 1A and Ex. 1B), sodium octyl sulfate, sodium decyl sulfate, sodium lauryl sulfate were mixed respectively with in Deionized (DI) water. Octadecyl sulfate sodium was mixed in Dimethyl sulfoxide (DMSO).
Two folds serial dilution are applied to each respective active by mixing 100 μl active stock solution (from 1 wt. %) plus 100 μl sterilized DI water or DMSO in 96 well plates (Nunc™ MicroWell™ 96-Well, CAT. No. 167008). For each assay, 0.001-1 wt. % treatment solutions are prepared for each individual active.
Micropipettes are used to transfer 20 μl of actives at different concentration into each well with 180 μl broth with the respective target microorganisms.
The 96 well plates with test microorganisms and test actives are incubated at 37° C. • a) E. coli are incubated for overnight 16 hours to 24 hour. • b) Corynebacterium minutissimum is incubated for two days. • c) Cutibacterium acnes is incubated for two days under anaerobic conditions.
After incubation, microorganism growth is determined in presence of test actives by visual inspection or spectrophotometer by OD600 (absorbance at 600 nm using Tecan M200 Infinite Pro Microplate Reader) reading in comparison with positive control (broth with individual microorganism) and negative control (Broth only). MIC values are presented as parts per million (ppm) for different actives.
C. acne SK137 and C. acne 2044NIA (P&G skin isolate) are from Type IA-2 Clade by whole genome sequencing, which is reported to be associated with skin acne conditions.

[2] = tested on: Cutibacterium acne SK137; experiment: as above; type: cell-based, Cutibacterium acnes; settings: for MIC: Cutibacterium, SK137, Cutibacterium acne SK137, anaerobic, read-out: Minimum Inhibition Concentration MIC; for bacterial inhibition of Cutibacterium acne (in words): two strains (SK137, 2044 NIA)
Description: (§1) The in vitro Minimum Inhibitory Concentration (MIC) Assay is a technique for determining the lowest concentration of a particular compound needed to prevent growth of microorganism. Different microorganisms were used to evaluate bacterial inhibition benefits for sulfate surfactants (Table 1) [table] Microorganisms are cultured and maintained in different culture medium. Each respective microorganism stock solution is diluted to 10^5 to 10^6 CFU/mL in a respective growth medium. 180 μl broth with the respective target microorganism is allocated into 96 well plates. Sodium oleyl sulfate prepared from two different synthesis batches (Ex. 1A and Ex. 1B), sodium octyl sulfate, sodium decyl sulfate, sodium lauryl sulfate were mixed respectively with in Deionized (DI) water. Octadecyl sulfate sodium was mixed in Dimethyl sulfoxide (DMSO). Two folds serial dilution are applied to each respective active by mixing 100 μl active stock solution (from 1 wt. %) plus 100 μl sterilized DI water or DMSO in 96 well plates (Nunc™ MicroWell™ 96-Well, CAT. No. 167008). For each assay, 0.001-1 wt. % treatment solutions are prepared for each individual active. Micropipettes are used to transfer 20 μl of actives at different concentration into each well with 180 μl broth with the respective target microorganisms. The 96 well plates with test microorganisms and test actives are incubated at 37° C. • a) E. coli are incubated for overnight 16 hours to 24 hour. • b) Corynebacterium minutissimum is incubated for two days. • c) Cutibacterium acnes is incubated for two days under anaerobic conditions. After incubation, microorganism growth is determined in presence of test actives by visual inspection or spectrophotometer by OD600 (absorbance at 600 nm using Tecan M200 Infinite Pro Microplate Reader) reading in comparison with positive control (broth with individual microorganism) and negative control (Broth only). MIC values are presented as parts per million (ppm) for different actives.

[3] = tested on: Corynebacterium minutissimum ATCC 23348; experiment: as above; type: cell-based; settings: for MIC: ATCC23348, read-out: Minimum Inhibition Concentration MIC
Description: as §1, with “plates. For instance, Corynebacterium minutissimum ATCC 23348 is cultured on tryptic soy agar (TSA) (Oxoid CM0131) over 24 hours. The single colonies are then transferred into 20 mL Tryptone Soy Broth (Oxoid CM0129B—TSB) and cultured overnight at 200 rpm/min, 37° C. Bacterial cell in broth will be diluted to 10^5 to 10^6 CFU/mL in TSB. 180 μL of this bacterium-MHB mix is added to a 96 well flat-bottomed plate (Nunc™ MicroWell™ 96-Well, CAT. No. 167008).” for “plates.”

[4] = tested on: Staphylococcus aureus ATCC6538; experiment: as above; type: cell-based; settings: for MIC: read-out: Minimum Inhibition Concentration MIC
Description: as §1

[5] = tested on: Escherichia coli ATCC25922; experiment: as above; type: cell-based; settings: for MIC: Escherichia coli ATCC25922, pH of the assay 7.2, read-out: Minimum Inhibition Concentration MIC
Description: as §1

[6] = tested on: E. coli ATCC25922; experiment: Kill Rate Test in liquid (suspension time-kill testing); type: cell-based, Escherichia coli
Description: The suspension time-kill test is a method to directly inoculate a liquid test substance with a high concentration of test microorganisms and then determine the percentage of killed over time, normally represented as log CFU reduction. The objective is to measure the biocidal potential of a liquid antimicrobial active or formulation.
E. coli ATCC25922 is streaked on Tryptic Soy Agar (TSA) Plates and cultured overnight. Pick up one colony of E. coli ATCC25922 and subculture bacterial cell in Tryptic Soy Broth (TSB) @ 200 rpm/min, 37° C. for 12-16 hours. After culturing, 1 mL bacterial cells in broth are pipetted into 2 mL tubes. Samples are centrifuged for 2 mins at 13000 rpm/min. Cell supernatant are discarded, and bacterial cells are resuspended in 1 mL Saline @ 10^8 to 10^9 CFU/mL. 1 mL liquid antimicrobial active to be tested under different concentrations is prepared: 20 mM acetate buffers are used to maintain the test solutions at a pH between 4.0 and 5.7. 10 mM phosphate buffer is used to maintain the test solution at a pH around 7.2. 20 mM Tris-HCl buffers are used to maintain the test solutions at a pH between 8.0 and 9.0. 1 mL saline (NaCl 0.9 wt. %) is used to as negative control in the study. 50 μl of 10^8 to 10^9 CFU/mL bacterial cells are added into each treatment and saline control. Samples were thoroughly mixed by vertexing 5 seconds. After incubating 30 minutes, 50 μl liquid from each treatment sample and saline control are pipetted out into for Total Viable Count Vial (NEOGEN). All measurements are done in duplicates. The Detection Time (DT) for Total Viable Count Vial is measured by Soleris® Next Generation (NEOGEN) system. DT values are averaged for each treatment and control for further calculation. DT time for each sample is converted to Log (viable cell number) by using algorithm generated for E. coli ATCC25922:
Biocidal potential of different actives at different concentrations and at different pHs in a liquid solution is measured by: […]

[7] = Description: The term “Biodegradable Test” as used herein means the test as described in the Test Method Section herein in which the test material is suspended in a phosphate buffered media containing an activated sludge inoculum and the formation of carbon dioxide measured via a closed-circuit respirometer. The test material is the sole carbon and energy source and under aerobic conditions microorganisms metabolize organic substances producing CO2 as the ultimate product. The biodegradability of the salt of the alkenyl sulfate ester, preferably sodium oleyl sulfate can be tested according to the following method. The Biodegradability Test Method is based on the Organization for Economic Co-operation and Development (OECD) 301B CO2 evolution biodegradation test method that screens chemicals for ready biodegradability in an aerobic aqueous medium. In this test, the test substance is suspended in a phosphate buffered nutrient salts media containing an activated sludge inoculum and the formation of carbon dioxide is measured via a closed-circuit respirometer. […] The test system is dosed with a known quantity of carbon and biodegradation is calculated as the percent of theoretical CO2 formation. […] Ready biodegradability is a regulator definition that is used to classify materials that meet the pass criteria as described in the OECD 301B guideline. […]
[8] = Corynebacterium minutissimum ATCC 23348

MIC [1] [mg/L] | MIC [2] [mg/L] | MIC [3, 8] [mg/L] | MIC ([4]; Staphylococcus aureus ATCC6538) [mg/L] | MIC [5] [mg/L] | Structure (SMILES) | inhibition of S. aureus (in words) [4] | also measured
> 500 | > 500 | > 500 | > 500 | > 1000 | CCCCCCCCCCCCCCCCCCOS(=O)(=O)[O-].[Na+] [octadecyl sulfate sodium salt] | ineffective | bacterial inhibition of Cutibacterium acne (in words) [2]: no effect
> 500 | > 500 | > 500 | > 1000 | > 1000 | CCCCCCCCCCOS(=O)(=O)[O-].[Na+] [sodium decyl sulfate] | No inhibition | –
62.5 | 31.2 | 125 | 125 | > 1000 | CCCCCCCCCCCCOS(=O)(=O)[O-].[Na+] [sodium lauryl sulfate] | less potent than sodium oleyl sulfate | –
> 500 | > 500 | > 500 | > 1000 | > 1000 | CCCCCCCCOS(=O)(=O)[O-].[Na+] [sodium octyl sulfate] | No inhibition | –

The remaining lines, values behind:

Structure (SMILES) | MIC [1] [mg/L] | MIC [2] [mg/L] | MIC [3, 8] [mg/L] | MIC ([4]; Staphylococcus aureus ATCC6538) [mg/L] | MIC [5] [mg/L] | inhibition of S. aureus (in words) [4] | also measured
CCCCCCCC/C=C\CCCCCCCCOS(=O)(=O)[O-].[Na+] [Ex. 1A, sodium oleyl sulfate] | 7.8 | 3.9 | 3.9 | 3.9 | > 1000 | – | –
CCCCCCCC/C=C\CCCCCCCCOS(=O)(=O)[O-].[Na+] [Ex. 1B, sodium oleyl sulfate] | – | – | – | – | – | – | bactericidal activity against E. coli ATCC25922 (log CFU reduction) ([6]; 12.5 ppm, test pH 4, 30 minutes): 4.3; bactericidal activity against E. coli ATCC25922 (log CFU reduction) ([6]; 12.5 ppm, test pH 5.1, 30 minutes): 0; bactericidal activity against E. coli ATCC25922 (log CFU reduction) ([6]; 50 ppm, test pH 4, 30 minutes): 6.6; bactericidal activity against E. coli ATCC25922 (log CFU reduction) ([6]; 50 ppm, test pH 5.1, 30 minutes): <0.3; bactericidal activity against E. coli ATCC25922 (log CFU reduction) ([6]; 200 ppm, test pH 4, 30 minutes): 6.6; bactericidal activity against E. coli ATCC25922 (log CFU reduction) ([6]; 200 ppm, test pH 5.1, 30 minutes): <0.3; Minimum Inhibition Concentration MIC [1]: 7.8 ppm; Minimum Inhibition Concentration MIC ([2]; Cutibacterium acne SK137, anaerobic, sulfate): 7.8 ppm; Minimum Inhibition Concentration MIC [3, 8]: 3.9 ppm; Minimum Inhibition Concentration MIC ([4]; Staphylococcus aureus ATCC6538): 3.9 ppm
CCCCCCCC/C=C\CCCCCCCCOS(=O)(=O)[O-].[Na+] [sodium oleyl sulfate] | – | – | – | – | – | – | ready biodegradability [7]: meeting both requirements for ready biodegradability; bactericidal activity against E. coli in solution (in words) ([6]; pH up to or equal to 4): some bactericidal activity; bacterial inhibition of Cutibacterium acne (in words) [2]: strong bacterial inhibition effects; bacterial inhibition of Corynebacterium minutissimum (in words) [3]: strong bacterial inhibition effects; effect against gram-negative E. coli (in words) ([5]; pH of the assay of 7.2): ineffective
